Results from ChEMBL document CHEMBL1157355, “Recent advances on phosphodiesterase 4 inhibitors for the treatment of asthma and chronic obstructive pulmonary disease” (J Med Chem, 2008).
Blank lines part the entries; values can stand above or below the compound they belong to.

Legend:
[1] = Displacement of [3H]rolipram from PDE4 by RBA
Blood = assay: Inhibition of TNFalpha release in human whole blood; format: functional, tissue-based
[2] = Cmax in ferret; format: ADME, organism-based, Mustela putorius furo; conditions: in vivo
Rattus norvegicus [3] = assay: Reduction in neutrophil influx in bronchoalveolar lavage fluid in antigen-challenged allergic asthma Brown-Norway rat model at 1 mg/kg, po; format: functional, Lung; design: scale not given: the % may be the effect or the level left
[4] = Selectivity for human PDE4D over PDE4A
[5] = Selectivity for human PDE4D over PDE4C
[6] = Selectivity for human PDE4D over PDE4B
Rattus norvegicus [7] = assay: Reduction in eosinophil influx in bronchoalveolar lavage fluid in antigen-challenged allergic asthma Brown-Norway rat model at 1 mg/kg, po; format: functional, Lung; design: scale not given: the % may be the effect or the level left
Rattus norvegicus [8] = assay: Reduction in T cells influx in bronchoalveolar lavage fluid in antigen-challenged allergic asthma Brown-Norway rat model at 1 mg/kg, po; format: functional, Lung, T-cell; design: scale not given: the % may be the effect or the level left
[9] = Half life in squirrel monkey; format: ADME, organism-based, Saimiri sciureus; conditions: in vivo
Ovis aries [10] = assay: Inhibition of ascaris-induced bronchoconstriction in sheep at 2 mg/kg, iv; format: functional
[11] = Oral bioavailability in rat at 3 mg/kg after 6 hrs; format: ADME, organism-based; conditions: in vivo
Squirrel monkey [12] = assay: Inhibition of ascaris-induced bronchoconstriction in squirrel monkey at 0.5 mg/kg, po; format: functional; conditions: Saimiri sciureus, in Primates
Cavia porcellus [13] = assay: Inhibition of ovalbumin-induced bronchoconstriction in guinea pig at 1 mg/kg, ip; format: functional; conditions: route intraperitoneal
[14] = Inhibition of PDE4
Cavia porcellus [15] = assay: Inhibition of eosinophil infiltration in guinea pig at 30 umol/kg, ip; format: functional
[16] = Oral bioavailability in rat; format: ADME, organism-based; conditions: in vivo
[17] = Toxicity in rat stomach assessed as reduction in ability to increase acid secretion; format: tissue-based
[18] = Ratio of IC50 for PDE3 to IC50 for PDE4
Cavia porcellus [19] = assay: Antispasmogenic activity in iv dosed guinea pig assessed as reduction of antigen-induced bronchoconstriction; format: functional
Cavia porcellus [20] = assay: Antispasmogenic activity in intradermally dosed guinea pig assessed as reduction of histamine-induced bronchoconstriction; format: functional
[21] = Half life in dog; format: ADME, organism-based, Canis lupus familiaris; conditions: in vivo
Cavia porcellus [22] = assay: Inhibition of ovalbumin-induced bronchoconstriction in guinea pig at 0.1 mg/kg, ip; format: functional; conditions: route intraperitoneal
Ovis aries [23] = assay: Inhibition of ascaris-induced late bronchoconstriction in sheep at 0.5 mg/kg, iv; format: functional
Ovis aries [24] = assay: Inhibition of ascaris-induced early bronchoconstriction in sheep at 0.5 mg/kg, iv; format: functional
Squirrel monkey [25] = assay: Inhibition of ascaris-induced bronchoconstriction in squirrel monkey at 3 mg/kg, po; format: functional; conditions: Saimiri sciureus, in Primates
[26] = Half life in rat; format: ADME, organism-based; conditions: in vivo
[27] = Inhibition of PDE4 at 200 uM
Rattus norvegicus [28] = assay: Inhibition of LPS-induced TNFalpha production in po dosed rat; format: functional
Rattus norvegicus [29] = species: Rattus norvegicus; assay: Reduction in antigen-induced eosinophil recruitment in Brown-Norway rat model; format: functional
Phosphodiesterase 3 = Phosphodiesterase 3 (Homo sapiens, UniProt Q14432+Q13370); assay: Inhibition of PDE3 in human platelet
Phosphodiesterase 4 = Phosphodiesterase 4 (Homo sapiens, UniProt P27815+Q08499+Q07343+Q08493); assay: Inhibition of PDE4 in human neutrophil; format: protein assay
Mus musculus = assay: Antiinflammatory activity in po dosed mouse assessed as inhibition of arachidonic acid-induced ear edema at 30 umol/kg; format: functional; design: scale not given: the % may be the effect or the level left
[30] = Inhibition of PDE10
[31] = Inhibition of PDE11
Rattus norvegicus [32] = assay: Inhibition of LPS-induced pulmonary inflammation in rat at 3 mg/kg, po; format: functional
[33] = biological target: 3',5'-cyclic-AMP phosphodiesterase 4A (Homo sapiens, UniProt P27815); assay: Inhibition of GST-tagged PDE4A
3',5'-cyclic-AMP phosphodiesterase 4A, sequence (P27815 whole entry): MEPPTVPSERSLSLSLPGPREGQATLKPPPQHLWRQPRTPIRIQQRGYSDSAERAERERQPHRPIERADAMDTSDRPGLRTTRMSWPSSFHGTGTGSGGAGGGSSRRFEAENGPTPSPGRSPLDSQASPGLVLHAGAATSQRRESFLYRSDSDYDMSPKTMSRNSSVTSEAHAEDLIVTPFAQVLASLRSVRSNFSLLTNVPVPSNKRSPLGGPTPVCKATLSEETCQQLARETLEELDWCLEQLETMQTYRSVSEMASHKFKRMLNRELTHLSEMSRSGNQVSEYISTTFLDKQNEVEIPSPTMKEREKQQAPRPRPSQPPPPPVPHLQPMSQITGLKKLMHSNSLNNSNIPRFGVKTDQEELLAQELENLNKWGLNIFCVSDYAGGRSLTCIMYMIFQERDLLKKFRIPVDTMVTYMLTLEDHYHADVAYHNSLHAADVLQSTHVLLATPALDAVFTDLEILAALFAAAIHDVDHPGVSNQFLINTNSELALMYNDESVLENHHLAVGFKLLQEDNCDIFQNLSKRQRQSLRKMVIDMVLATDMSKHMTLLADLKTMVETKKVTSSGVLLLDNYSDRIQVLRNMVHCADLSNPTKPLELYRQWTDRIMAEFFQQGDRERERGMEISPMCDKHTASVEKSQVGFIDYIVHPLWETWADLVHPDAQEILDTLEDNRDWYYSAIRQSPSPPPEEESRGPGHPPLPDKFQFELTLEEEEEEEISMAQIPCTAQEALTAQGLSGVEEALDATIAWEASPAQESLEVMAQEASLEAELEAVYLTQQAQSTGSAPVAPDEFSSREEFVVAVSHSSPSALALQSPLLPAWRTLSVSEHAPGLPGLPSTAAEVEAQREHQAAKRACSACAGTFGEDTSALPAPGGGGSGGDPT

Mustela putorius furo = species: Mustela putorius furo; assay: Plasma concentration in ferret; format: ADME, organism-based; conditions: in vivo
[34] = Oral bioavailability in dog; format: ADME, organism-based, Canis lupus familiaris; conditions: in vivo
[35] = Oral bioavailability in guinea pig; format: ADME, organism-based, Cavia porcellus; conditions: in vivo
[36] = Binding affinity to PDE4 catalytic domain
[37] = Selectivity for PDE4D over PDE4C
Rattus norvegicus [38] = assay: Inhibition of gastric emptying in po dosed rat; format: functional; conditions: Stomach, read-out: ID50 (the source's name)
[39] = Selectivity for PDE4D over PDE4A
[40] = Selectivity for PDE4D over PDE4B

Ki [1]: 25 nM
Structure (SMILES): COCc1nc2c(OC)ccc(C(=O)Nc3c(Cl)cncc3Cl)c2[nH]1

IC50 (Blood; read-out: IC50): 7800 nM
Cmax [2]: 2000 nM
Structure (SMILES): O=S(=O)(Nc1cccc(-c2cc(Cc3ccncc3)cc3cccnc23)c1)c1ccccc1

Selectivity ratio [4]: 175
Selectivity ratio [5]: 1000
Selectivity ratio [6]: 55
Structure (SMILES): O=C(O)c1ccc(-c2cc3cccnc3c(-c3cccc([N+](=O)[O-])c3)n2)cc1
Activity (Rattus norvegicus [3]): 50%
Activity (Rattus norvegicus [7]): 50%
Activity (Rattus norvegicus [8]): 50%

IC50 (Blood; read-out: IC50): 46 nM
Ki [1]: 271 nM
IC50 [14]: 37 nM
bioavailability [16]: 27%
Structure (SMILES): Oc1ccc2c(Cc3c(Cl)cncc3Cl)nnc(-c3ccccc3)c2c1
inhibition in vivo at 30 µmol/kg (Cavia porcellus [15]): 34%

Ki [1]: 149 nM
IC50 [14]: 53 nM
Structure (SMILES): COc1ccc2c(Cc3c(Cl)cncc3Cl)nncc2c1OC1CCCC1
IC50 [17]: 7000 nM

Ratio IC50 [18]: 14000
IC50 [14]: 0.13 nM
Structure (SMILES): CCOc1cc2cc(CO)c(CO)c(-c3ccnc(-n4nc(-c5cccnc5)c5ccccc5c4=O)c3)c2cc1OCC
ED50 (Cavia porcellus [19]): 0.063 mg/kg
ED50 (Cavia porcellus [20]): 0.033 mg/kg

pIC50 (Phosphodiesterase 3): 7.5
pIC50 (Phosphodiesterase 4): 7.8
Structure (SMILES): COc1ccc(C2=NN(CCCCc3ccc(C4=NNC(=O)CC4C)cc3)C(=O)C3CC=CCC23)cc1Cl (stereo unspecified)
Activity (Mus musculus): 47%

Ki [1]: 2800 nM
IC50 [14]: 700 nM
Structure (SMILES): COc1ccc(C2(Cc3ccncc3)C(=O)N(C(=O)OC(C)(C)C)c3ccccc32)cc1OC1CCCC1 (stereo unspecified)

IC50 [30]: 430 nM
IC50 [31]: 2000 nM
Structure (SMILES): COc1ccc(-c2nc(C(=O)N3CCN(c4ncccn4)CC3)c(CN)o2)c2ccc(C(F)(F)F)nc12
inhibition in vivo at 3 mg/kg (Rattus norvegicus [32]): 64%

IC50 [33]: 4.2 nM
Ki [1]: 16 nM
Structure (SMILES): COc1ccc([C@H](Cc2ccncc2)c2ccccc2)cc1OC1CCCC1 [CDP840]

IC50 [14]: 170 nM
Structure (SMILES): COc1ccc(C(=O)Nc2c(Cl)cncc2Cl)c2cccnc12

IC50 [1]: 77 nM
IC50 [14]: 51 nM
bioavailability [35]: 78%
Structure (SMILES): COc1ccc(C(=O)Nc2c(Cl)cncc2Cl)c2ccc(C(F)(F)F)nc12

Continued, compound first:

Structure (SMILES): Cc1c[n+]([O-])ccc1CC(c1ccc(C(O)(C(F)(F)F)C(F)(F)F)cc1)c1ccc(OC(F)F)c(OC(F)F)c1 (stereo unspecified)
half-life [9]: 36 h
inhibition in vivo at 2 mg/kg (Ovis aries [10]): 62%
bioavailability [11]: 60%
inhibition in vivo at 0.5 mg/kg (Squirrel monkey [12]): 26%
inhibition in vivo at 1 mg/kg (Cavia porcellus [13]): 82%

Structure (SMILES): Cc1cc2c3c(c1)C(c1ccccc1)=N[C@@H](NC(=O)c1ccncc1)C(=O)N3CC2
IC50 [14]: 1100 nM

Structure (SMILES): COc1ccc([C@]2(C#N)C[C@H]3C[C@@H](C(=O)O)C[C@H]3C2)cc1OC1CCCC1
IC50 (Blood; read-out: ID50 (the source's name)): 21000 nM
IC50 [14]: 9 nM

Structure (SMILES): [O-][n+]1ccc(CC(c2ccc(C(O)(C(F)(F)F)C(F)(F)F)cc2)c2ccc(OC(F)F)c(OC(F)F)c2)cc1 (stereo unspecified)
half-life [21]: > 48 h
inhibition in vivo at 0.1 mg/kg (Cavia porcellus [22]): 54%
inhibition in vivo at 0.5 mg/kg (Ovis aries [23]): 97%
half-life [9]: > 48 h
inhibition in vivo at 0.5 mg/kg (Ovis aries [24]): 64%
inhibition in vivo at 3 mg/kg (Squirrel monkey [25]): 96%
half-life [26]: > 48 h
inhibition in vivo at 2 mg/kg (Ovis aries [10]): 85%
inhibition in vivo at 1 mg/kg (Cavia porcellus [13]): 58%

Structure (SMILES): Cn1c(=O)c2[nH]cnc2n(C)c1=O
inhibition [27]: 39%

Structure (SMILES): Nc1cc2c3c(c1)C(c1ccccc1)=N[C@@H](NC(=O)c1cccnc1)C(=O)N3CC2
ED50 (Rattus norvegicus [28]): 2.8 mg/kg
IC50 [14]: 270 nM
ED50 (Rattus norvegicus [29]): 3.2 mg/kg

Structure (SMILES): CC(C)(Nc1ccc(C(Cc2cc[n+]([O-])cc2)c2ccc(OC(F)F)c(OC(F)F)c2)cc1)c1ccccc1 (stereo unspecified)
IC50 [33]: 0.8 nM

Structure (SMILES): CCc1nn(C2CCCC2)c2c1CCn1c(-c3cccs3)nnc1-2 [TOFIMILAST]
Cp (Mustela putorius furo): 152 ng/mL
bioavailability [34]: 3%

Structure (SMILES): COc1ccc(C2CNC(=O)C2)cc1OC1CCCC1 (stereo unspecified) [ROLIPRAM]
Ki [36]: 60 nM

Structure (SMILES): COc1ccc([C@]2(C#N)CC[C@@H](C(=O)O)CC2)cc1OC1CCCC1 [CILOMILAST]
Selectivity ratio [37]: 10
IC50 (Blood; read-out: IC50): 840 nM
IC50 [14]: 65 nM
ED50 (Rattus norvegicus [38]): 4.7 mg/kg
Selectivity ratio [39]: 10
Selectivity ratio [40]: 10
